The source of these data is US20220033397A1, “PHARMACEUTICAL COMPOUNDS AND THEIR USE AS INHIBITORS OF UBIQUITIN SPECIFIC PROTEASE 19 (USP19)” (ALMAC DISCOVERY LIMITED, priority 2018, published 2022).

This experiment has as its target T1, Full-length USP19 (Homo sapiens, UniProt O94966).
T1 construct: Full-length USP19 was purchased from Boston Biochem (E-576); purchased Boston Biochem E-576
T1 sequence (O94966 1-1318): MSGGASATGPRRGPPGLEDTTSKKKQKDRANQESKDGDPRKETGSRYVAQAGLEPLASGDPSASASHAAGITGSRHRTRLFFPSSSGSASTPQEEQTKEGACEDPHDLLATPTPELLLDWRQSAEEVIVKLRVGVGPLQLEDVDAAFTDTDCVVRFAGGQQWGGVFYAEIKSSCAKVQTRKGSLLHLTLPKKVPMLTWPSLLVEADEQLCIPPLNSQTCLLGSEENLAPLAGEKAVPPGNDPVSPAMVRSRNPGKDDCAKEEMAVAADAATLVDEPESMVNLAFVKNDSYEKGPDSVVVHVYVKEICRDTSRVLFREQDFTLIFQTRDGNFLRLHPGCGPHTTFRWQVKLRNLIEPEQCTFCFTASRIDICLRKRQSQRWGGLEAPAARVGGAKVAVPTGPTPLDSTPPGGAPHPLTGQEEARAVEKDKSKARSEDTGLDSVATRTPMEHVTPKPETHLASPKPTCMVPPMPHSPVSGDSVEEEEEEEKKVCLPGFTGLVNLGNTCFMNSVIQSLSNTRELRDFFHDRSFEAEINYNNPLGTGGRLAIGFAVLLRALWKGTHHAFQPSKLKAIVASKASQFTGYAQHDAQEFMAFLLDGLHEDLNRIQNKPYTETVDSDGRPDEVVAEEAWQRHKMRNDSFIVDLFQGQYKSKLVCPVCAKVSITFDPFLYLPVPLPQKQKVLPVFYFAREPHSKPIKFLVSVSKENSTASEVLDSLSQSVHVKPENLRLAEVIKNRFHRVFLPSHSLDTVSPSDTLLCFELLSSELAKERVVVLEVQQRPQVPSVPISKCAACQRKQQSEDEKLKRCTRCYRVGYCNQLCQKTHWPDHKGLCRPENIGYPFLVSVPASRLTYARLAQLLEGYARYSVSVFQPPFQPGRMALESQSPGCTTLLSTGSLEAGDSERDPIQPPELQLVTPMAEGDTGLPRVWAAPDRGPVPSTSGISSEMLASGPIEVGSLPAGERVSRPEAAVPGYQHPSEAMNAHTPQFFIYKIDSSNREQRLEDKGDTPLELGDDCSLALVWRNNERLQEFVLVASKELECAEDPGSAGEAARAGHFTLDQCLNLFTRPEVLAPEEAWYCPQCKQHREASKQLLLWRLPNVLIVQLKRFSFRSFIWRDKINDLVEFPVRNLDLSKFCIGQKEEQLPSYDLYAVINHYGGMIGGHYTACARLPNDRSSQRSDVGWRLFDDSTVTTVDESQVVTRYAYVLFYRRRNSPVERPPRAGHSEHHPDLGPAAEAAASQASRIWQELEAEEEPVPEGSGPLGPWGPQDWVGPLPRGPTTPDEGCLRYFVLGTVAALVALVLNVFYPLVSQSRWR
In words: USP19 fluorescence polarisation (FP) homogeneous assay with Ubiquitin-Lys-TAMRA substrate. Conditions: 2.5 nM USP19, 30 min pre-incubation, average of at least two duplicate experiments. It is filed as biochemical. How it is done:
Unless otherwise stated, all other reagents were purchased from Sigma. Enzymatic reactions were conducted in black flat bottom polystyrene 384-well plates (Nunc) and 30 μL total volume. […] Inhibitors were stored as 10 mM DMSO stocks in an inert environment (low humidity, dark, low oxygen, room temperature) using the Storage Pod System and serial dilutions were prepared in buffer just prior to the assay (from 200 μM to 2 μM, 8-18 data point curve).
Following incubation at RT for 30 min, the enzymatic reactions were initiated by dispensing the Ub substrate (500 nM, 10 μL). FP was measured every 15 min over a period of 90 min (within the linear range of the assay) using a Synergy 4 plate reader (BioTek) exciting at 530 nm and measuring the amount of parallel and perpendicular light at 575 nm. The FP signal was subsequently normalised to the no compound control.
In general terms: Fluorescence polarisation rises when a labelled molecule tumbles more slowly, as on binding a larger partner.

In the case of `O=C(N1CCCC2(CC2)C1)N1CCC(O)(Cn2cnc(-c3ccccc3)cc2=O)C2(CCCC2)C1` (stereo not shown) [Example 250, 3-((10-Hydroxy-7-(5-azaspiro[2.5]octane-5-carbonyl)-7-azaspiro[4.5]decan-10-yl)methyl)-6-phenylpyrimidin-4(3H)-one], the IC50 (usually the concentration at which inhibition is half-maximal) fell in the range of 5 to 50 µM.
`Cc1cn(CC2(O)CCN(C(=O)N3CCNC[C@H]3c3ccccc3)CC23CCCC3)c(=O)cn1` (stereo partly drawn) [Example 92, 1-((10-Hydroxy-7-((R)-2-phenylpiperazine-1-carbonyl)-7-azaspiro[4.5]decan-10-yl)methyl)-5-methylpyrazin-2(1H)-one]: the 50% inhibitory concentration (IC50) was less than 0.5 µM.
Regarding `C[C@H](CC1CCCCC1)C(=O)N1CCC(O)(Cn2cc(N3CCCC3=O)ncc2=O)C(C)(C)C1` (stereo partly drawn) [Example 13, 1-((1-((R)-3-Cyclohexyl-2-methylpropanoyl)-4-hydroxy-3,3-dimethylpiperidin-4-yl)methyl)-5-(2-oxopyrrolidin-1-yl)pyrazin-2(1H)-one], the IC50 lay within 0.5 to 5 µM.
Regarding `C[C@H](CC1CCCCC1)C(=O)N1CCC(O)(Cn2cc([S+](C)[O-])c(-c3ccccc3)cc2=O)C2(CCCC2)C1` (stereo partly drawn) [Example 79, 1-((7-((R)-3-Cyclohexyl-2-methylpropanoyl)-10-hydroxy-7-azaspiro[4.5]decan-10-yl)methyl)-5-(methylsulfinyl)-4-phenylpyridin-2(1H)-one], the IC50 is less than 0.5 µM.
On to `CC1CCCN1C(=O)N1CCC(O)(Cn2cnc(-c3ccccc3)cc2=O)C2(CCCC2)C1` (stereo not shown) [Example 233, 3-((10-Hydroxy-7-(2-methylpyrrolidine-1-carbonyl)-7-azaspiro[4.5]decan-10-yl)methyl)-6-phenylpyrimidin-4(3H)-one], for which the IC50 was in the range of 5 to 50 µM.
As for `CC1(C)CN(C(=O)CCC2CCCCC2)CCC1(O)CN1CC(Cc2ccccc2)CC1=O` (stereo not shown) [Example 45, 4-Benzyl-1-((1-(3-cyclohexylpropanoyl)-4-hydroxy-3,3-dimethylpiperidin-4-yl)methyl)pyrrolidin-2-one], the 50% inhibitory concentration (IC50) lay in the range of 50 to 250 µM.
With `O=C(N1CC[C@@](O)(Cn2cnc(-c3ccccc3C(F)(F)F)cc2=O)C2(CCCC2)C1)N1CCNC[C@H]1c1ccccc1` [Example 360, 3-(((S)-10-Hydroxy-7-((R)-2-phenylpiperazine-1-carbonyl)-7-azaspiro[4.5]decan-10-yl)methyl)-6-(2-(trifluoromethyl)phe-nyl)pyrimidin-4(3H)-one], the IC50 was less than 0.5 µM.
For `C[C@H](CC1CCCCC1)C(=O)N1CCC(O)(Cn2ccc3nccnc3c2=O)C2(CCCC2)C1` (stereo partly drawn) [Example 150, 6-((7-((R)-3-Cyclohexyl-2-methylpropanoyl)-10-hydroxy-7-azaspiro[4.5]decan-10-yl)methyl)pyrido[3,4-b]pyrazin-5(6H)-one], the IC50 was 50 to 250 µM.
For `O=C(N1CC[C@@](O)(Cn2ccc(-c3ccccc3)cc2=O)C2(CCCC2)C1)N1CCNC[C@H]1c1ccccc1` [Example 287, 1-(((S)-10-Hydroxy-7-((R)-2-phenylpiperazine-1-carbonyl)-7-azaspiro[4.5]decan-10-yl)methyl)-4-phenylpyridin-2(1H)-one], the IC50 was less than 0.5 µM.
For the compound `COc1ccccc1C1CNCCN1C(=O)N1CCC(O)(Cn2cnc(-c3ccccc3)cc2=O)C2(CCCC2)C1` (stereo not shown) [Example 271, 3-((10-Hydroxy-7-(2-(2-methoxyphenyl)piperazine-1-carbonyl)-7-azaspiro[4.5]decan-10-yl)methyl)-6-phenylpyrimidin-4(3H)-one], the IC50 was 50 to 250 µM.
Consider `C[C@H](CC1CCCCC1)C(=O)N1CCC(O)(Cn2ccc3sccc3c2=O)C2(CCCC2)C1` (stereo partly drawn) [Example 142, 5-((7-((R)-3-Cyclohexyl-2-methylpropanoyl)-10-hydroxy-7-azaspiro[4.5]decan-10-yl)methyl)thieno[3,2-c]pyridin-4(5H)-one], for which the IC50 was 5 to 50 µM.
As for `CC1(CNC(=O)N2CCC(O)(Cn3cnc(-c4ccccc4)cc3=O)C3(CCCC3)C2)CC1` (stereo not shown) [Example 256, 10-Hydroxy-N-((1-methylcyclopropyl)methyl)-10-((6-oxo-4-phenylpyrimidin-1(6H)-yl)methyl)-7-azaspiro[4.5]decane-7-carboxamide], the IC50 was in the range of 5 to 50 µM.
Under `O=C(N1CC[C@@](O)(Cn2cnc(-c3ccccc3)cc2=O)C2(CCCC2)C1)N1CCNCC1c1cccs1` (stereo partly drawn) [Example 358, 3-(((10S)-10-Hy-droxy-7-(2-(thio-phen-2-yl)piperazine-1-carbonyl)-7-aza-spiro[4.5]decan-10-yl)methyl)-6-phenylpyrimidin-4(3H)-one] stands less than 0.5 µM; under `O=C(N1CC[C@@](O)(Cn2cnc(-c3cccc(F)c3F)cc2=O)C2(CCCC2)C1)N1CCNC[C@H]1c1ccccc1` [Example 385, 6-(2,3-Difluoro-phenyl)-3-(((S)-10-hydroxy-7-((R)-2-phenylpiperazine-1-carbonyl)-7-aza-spiro[4.5]decan-10-yl)methyl)pyrimidin-4(3H)-one], less than 0.5 µM.
`O=C(N1CCC(O)(Cn2cnc(-c3ccccc3)cc2=O)C2(CCCC2)C1)N1CCOCC1c1cccs1` (stereo not shown) [Example 235, 3-((10-Hydroxy-7-(3-(thiophen-2-yl)morpholine-4-carbonyl)-7-azaspiro[4.5]decan-10-yl)methyl)-6-phenylpyrimidin-4(3H)-one]: the IC50 is less than 0.5 µM.
Under `C[C@H](CC1CCCCC1)C(=O)N1CCC(O)(Cn2cnc3cc(Cl)ccc3c2=O)C2(CCCC2)C1` (stereo partly drawn) [Example 129, 7-Chloro-3-((7-((R)-3-cyclohexyl-2-methylpropanoyl)-10-hydroxy-7-azaspiro[4.5]decan-10-yl)methyl)quinazolin-4(3H)-one] stands 0.5 to 5 µM.
In the case of `C[C@H](CC1CCCCC1)C(=O)N1CCC(O)(CN2CCN(C(=O)OCc3ccccc3)CC2=O)C2(CCCC2)C1` (stereo partly drawn) [Example 47, Benzyl 4-((7-((R)-3-cyclohexyl-2-methylpropanoyl)-10-hydroxy-7-azaspiro[4.5]decan-10-yl)methyl)-3-oxopiperazine-1-carboxylate], the IC50 is 0.5 to 5 µM.
Take `O=C(N1CCC(O)(Cn2cnc(-c3ccccc3)cc2=O)C2(CCCC2)C1)N1CCC[C@H]1c1ccon1` (stereo partly drawn) [Example 265, 3-((10-Hydroxy-7-((S)-2-(isoxazol-3-yl)pyrrolidine-1-carbonyl)-7-azaspiro[4.5]decan-10-yl)methyl)-6-phenylpyrimidin-4(3H)-one]: the IC50 fell in the range of 0.5 to 5 µM.
In the case of `O=C(N1CC[C@@](O)(Cn2cnc(N3CCCCC3)cc2=O)C2(CCCC2)C1)N1CCNC[C@H]1c1ccccc1` [Example 348, 3-(((S)-10-Hydroxy-7-((R)-2-phenylpiperazine-1-carbonyl)-7-aza-spiro[4.5]decan-10-yl)methyl)-6-(piperi-din-1-yl)pyrimidin-4(3H)-one], the IC50 is less than 0.5 µM.
Consider `CCn1ncc2c(=O)n(CC3(O)CCN(C(=O)[C@H](C)CC4CCCCC4)CC34CCCC4)cnc21` (stereo partly drawn) [Example 124, 5-((7-((R)-3-Cyclohexyl-2-methylpropanoyl)-10-hydroxy-7-azaspiro[4.5]decan-10-yl)methyl)-1-ethyl-1,5-dihydro-4H-pyrazolo[3,4-d]pyrimidin-4-one], for which the IC50 is less than 0.5 µM.
Next, `CC(CC1CCCCC1)C(=O)N1CCC(O)(CN2C(=O)c3ccccc3C2=O)C(C)(C)C1` (stereo not shown) [Example 42, 2-((1-(3-Cyclohexyl-2-methylpropanoyl)-4-hydroxy-3,3-dimethylpiperidin-4-yl)methyl)isoindoline-1,3-dione]: 50 to 250 µM; `O=C(N1CC[C@@](O)(Cn2cnc(-c3ccccc3F)cc2=O)C2(CCCC2)C1)N1CCNC[C@H]1c1cc(F)cc(F)c1` [Example 392, 3-(((S)-7-((R)-2-(3,5-Difluoro-phenyl)piper-azine-1-carbonyl)-10-hydroxy-7-azaspiro[4.5]decan-10-yl)methyl)-6-(2-fluorophenyl)pyrimi-din-4(3H)-one]: less than 0.5 µM.
